# Data published in PubChem BioAssay AID504703 (Southern Research Specialized Biocontainment Screening …, 2011).
# “And” between values parts separate entries of the source, which are not always exact repeats. Identical values can stand only once. The source made the active and inactive calls. No rule for the calls is given here.
# Test system: M. tuberculosis H37Rv growth inhibition with meropenem
# Test: H37Rv growth inhibition with and without meropenem, dose response, set 2 (AID 504703);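 also: growth ran 7 days at 37 °C then overnight with Alamar Blue before reading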
# [1] = M. tuberculosis H37Rv growth inhibition, measured here: IC50 without meropenem
# [2] = M. tuberculosis H37Rv growth inhibition, measured here: IC90 without meropenem
# [3] = measured here: IC90 with meropenem
SMILES,IC50 [1],IC90 [2] [µM],IC90 [3],IC50
COc1ccc2nc(NC(=O)COc3ccc(C)cc3)sc2c1,> 25 µM,> 25,,
Cc1ccc(OCC(=O)Nc2cccc3ncccc23)c(C)c1,> 25 µM,> 25,,
O=C(OC(C(=O)Nc1ccc(Cl)cc1C(F)(F)F)c1ccccc1)C1=COCCO1 (stereo unspecified),16.9 µM,> 25,> 25 µM,
CC(Oc1ccc(Cl)cc1)C(=O)Nc1nc2ccccc2s1 (stereo unspecified),> 25 µM,> 25,,
Cc1cc2cc(Cl)ccc2n1-c1ccccc1,> 25 µM,> 25,,
O=C(COc1ccc2ccccc2c1)Nc1nc2ccccc2[nH]1,> 18.8 µM and 15.5 µM,> 25,> 25 µM,> 18.8 µM (inactive) and 8.87 µM (inactive)
O=C(CCS(=O)(=O)c1ccc(F)cc1)Nc1nnc(-c2cccs2)o1,> 25 µM,> 25,> 25 µM,> 18.8 µM (inactive) and 22.4 µM (inactive)
CCOc1ccc2c(c1)c(C(C)=O)c(C)n2Cc1ccco1,> 25 µM,> 25,,
Cc1ccccc1OCC(=O)Nc1nnn(C)n1,> 25 µM,> 25,,
CCC(CC)c1nnc(NC(=O)c2ccc(N3CCCCC3)c([N+](=O)[O-])c2)s1,> 25 µM,> 25,,
COC(=O)c1c(C)[nH]c2ccc(F)cc12,> 25 µM,> 25,,
COc1ccc2nc(NC(=O)COc3ccccc3C(C)C)sc2c1,> 25 µM,> 25,,
N/C(=N\c1nc2ccccc2o1)NC(=O)c1ccccc1F,> 25 µM,> 25,,
O=C(COc1ccc(Cl)cc1)Nc1nc2ccc(F)cc2s1,> 25 µM,> 25,,
CCOc1ccc2[nH]ccc2c1,> 25 µM,> 25,,
CC(=O)c1c(C)n(-c2ccccc2)c2ccc(O)cc12,> 25 µM,> 25,> 25 µM,20.1 µM (inactive)
Cc1ccccc1OCC(=O)Nc1ncccn1,> 25 µM,> 25,,
O=C(O)CCC(=O)Nc1nc2ccccc2s1,> 25 µM,> 25,,
Cc1cc(C)c(OCC(=O)Nc2nc3ccccc3s2)c(Cl)c1,> 25 µM,> 25,,
O=C(COC(=O)C1=COCCO1)Nc1ccc2c(c1)OCO2,> 25 µM,> 25,> 25 µM,

SMILES,IC50 [1],IC90 [2] [µM],IC90 [3],IC50
O=C(Nc1ccccc1)Nc1csc2ccccc12,5.5 µM and 1.82 µM,> 25,> 25 µM,
CC(=O)Nc1ccc2nc(NC(=O)Cc3ccccc3)sc2c1,> 25 µM,> 25,,
CC(=O)c1c(C)n(-c2ccccc2)c2ccc(OS(=O)(=O)C(F)(F)F)cc12,> 25 µM,> 25,> 25 µM,> 25 µM (inactive)
c1ccc(OCc2nnc(-c3ccccc3)o2)cc1,> 18.8 µM and 15.3 µM,> 25,> 25 µM,15 µM (inactive)
CCOc1ccc2nc(NC(=O)COc3ccc(Cl)c(C)c3)sc2c1,> 25 µM,> 25,,
COc1ccc2[nH]c(C)cc2c1,> 25 µM,> 25,,
Cc1ccc(OCC(=O)Nc2cccc3c(NC(=O)COc4ccc(C)cc4C)cccc23)c(C)c1,> 25 µM,> 25,,
Cc1cc2ccccc2[nH]1,> 25 µM,> 25,,
O=C(Nc1nc2ccccc2[nH]1)c1cc2cc(Br)ccc2o1,> 25 µM,> 25,,
Cc1onc(-c2c(Cl)cccc2Cl)c1/C(N)=N/OC(=O)C1CC1,14.7 µM,> 25,> 25 µM,
Cc1ccccc1OCC(=O)Nc1noc(-c2ccccc2)n1,> 25 µM,> 25,,
COc1ccc2nc(NC(=O)COc3ccc(Cl)cc3)sc2c1,> 25 µM,> 25,,
N/C(=N\c1nc2ccccc2o1)NC(=O)c1ccccc1Br,8.26 µM,> 25,> 25 µM,
CC(=O)c1c(C)n(-c2cccc(Cl)c2)c2ccc(O)cc12,> 25 µM,> 25,,
CCOc1ccc2c(c1)c(C(C)=O)c(C)n2-c1ccccc1,> 25 µM,> 25,> 18.8 µM and 2.79 µM,
N/C(=N\c1nc2ccccc2o1)NC(=O)c1ccc(F)cc1,21.6 µM,> 25,> 25 µM,9.64 µM (inactive)
Cc1cccc(C)c1OCC(=O)Nc1nc2ccccc2s1,> 25 µM,> 25,,
CCOc1ccc2[nH]c(C)cc2c1,> 25 µM,> 25,,
CC(=O)c1c(C)n(-c2ccc(C)cc2)c2ccc(O)cc12,> 25 µM,> 25,,
CCCOc1ccc2c(c1)c(C(C)=O)c(C)n2-c1ccccc1,> 25 µM,> 25,,

SMILES,IC50 [1],IC90 [2] [µM],IC90 [3],IC50
CCOC(=O)COc1nc(-c2ccc(Cl)cc2)cc(-c2ccco2)c1C#N,> 25 µM,> 25,> 25 µM,
COc1ccc2nc(NC(=O)C(C)Oc3ccccc3)sc2c1 (stereo unspecified),> 25 µM,> 25,,
Cc1cc(C)c(OCC(=O)Nc2nc3ccc(C)cc3s2)c(C)c1,> 25 µM,> 25,,
Cc1ccc2oc(/N=C(\N)NC(=O)c3ccccc3)nc2c1,> 25 µM,> 25,,
COC(=O)c1c(C)n(-c2ccccc2)c2ccc(O)cc12,> 25 µM,> 25,> 18.8 µM,8.43 µM (inactive) and > 12.5 µM (inactive)
Cc1ccc(OCC(=O)Nc2ccc(Cl)cc2)c(C)c1,> 25 µM,> 25,,
Cc1ccc(OCC(=O)Nc2cccc3ccccc23)c(C)c1,> 25 µM,> 25,> 25 µM,20.5 µM (inactive)
O=C(Nc1nc2ccccc2[nH]1)c1ccc(Cl)c(Cl)c1,1.9 µM,> 25,> 25 µM,0.81 µM (inactive)
Cc1ccc(OC(C)C(=O)Nc2ncccn2)c(C)c1 (stereo unspecified),> 25 µM,> 25,,
Cc1cc2cc(F)ccc2[nH]1,> 25 µM,> 25,,
COc1ccc2nc(NC(=O)c3oc4ccccc4c3C)sc2c1,> 25 µM,> 25,,
O=C(Cc1ccccc1Cl)Nc1nc2ccccc2[nH]1,> 18.8 µM and 16.4 µM,> 25,> 25 µM,18.9 µM (inactive)
Cc1cc2cc(O)ccc2[nH]1,> 25 µM,> 25,,
CCOc1ccc2nc(NC(=O)COc3ccc(OC)cc3)sc2c1,> 25 µM,> 25,,
Cc1ccc(OCC(=O)Nc2ccc3c4c(cccc24)CC3)c(C)c1,> 25 µM,> 25,> 25 µM,
COc1ccc(Cl)cc1C(=O)Nc1nc2ccccc2[nH]1,> 25 µM,> 25,> 25 µM,16.2 µM (inactive)
c1ccc(-c2cc(N3CCOCC3)nc3ccccc23)cc1,> 25 µM,> 25,> 18.8 µM,10 µM (inactive)
COc1cccc(NC(=S)Nc2cc(C)cc(C)n2)c1,14.4 µM,> 25,> 25 µM,7.2 µM (inactive)
N/C(=N\c1nc2cc(Cl)ccc2o1)NC(=O)c1ccccc1,> 25 µM,> 25,,
CN(NC(=O)c1c(Cl)cccc1Cl)c1cccc(Cl)n1,> 25 µM,> 25,> 25 µM,15.5 µM (inactive)
